Measurements as given in patent US10980754B2, “Anti-fungal compounds” (SAINT LOUIS UNIVERSITY, priority 2016, dated 2021).
≈ marks a conversion by molar mass, not a printed value. Entries after “also recorded” stand apart in the source; their conditions may differ.

Experiments:
Wild-type KN99α = experiment: Screening of 1-Hydroxy-1,8-naphthyridin-2(1H)-one (HNO) compounds for growth inhibition; type: cell-based, C. neoformans; conditions: Cryptococcus neoformans; growth inhibited >80%
Experimental: FIG. 1. Results from screening 8 napthyridinone derivatives. Wild-type KN99α at a starting density of 0.0005 was treated with the compounds at 4 μM, 15 μM, and 60 μM in nutrient-limiting media (YNB, pH 7)+1% DMSO at 35° C. for 48 hours. Bars represent the average cell density of at least three replicates as percent of untreated cells.
Eight compounds in the 1-Hydroxy-1,8-naphthyridin-2(1H)-one (HNO) chemical family were also tested. Three compounds, #149, #153 and #154, inhibited growth of C. neoformans >80% with MICs of ˜10 μM, ˜4 μM and ˜20 μM respectively.

[1] = tested on: C. neoformans var grubii, KN99; experiment: Inhibition of C. neoformans growth, limiting dilution assay (MIC); type: cell-based; conditions: for MIC80: KN99α, minimal concentration inhibiting 80% of growth relative to vehicle; for activity against C. neoformans (in words): MIC assay
Experimental: Strains and media. All inhibition assays were performed with C. neoformans var grubii, KN99 (serotype A, MATα; kindly provided by Jennifer Lodge). Two clinical strains of C. neoformans var grubii, serotype A, were kindly provided by Tamara Doering and Andre Spec. […] Each assay was done in triplicate and all values are the average of two or more independent assays. The data are presented as the average cell density as a percent of DMSO-only treated cells. […] However, these conditions are unlike conditions encountered by C. neoformans in mammalian infections, where nutrients are limited, and the pH and temperature are higher than in YPD media. The cryptococcal stress response to low glucose and high pH and temperature may alter its susceptibility to the inhibitors. It is also possible that the enzymes targeted by the inhibitors may render the cell temperature sensitive when inhibited. To better mimic growth in mammals, growth was tested without shaking in nutrient-limited media at 35° C. […] However, as the nutrient-limited media and higher temperature is more similar to mammalian cell growth conditions, these conditions were used for all further assays. […] All values were measured at least two times in independent experiments and the average MIC is reported.

[2] = Cytotoxicity in hepatoma cells (MTS); conditions: human, HepDES19 cells
Experimental: (§1) HepDES19 cells (1.0×10^4 cells per well) were seeded in 96-well plates and incubated in DMEM with 10% fetal bovine serum (FBS) plus 1% penicillin and streptomycin, 1% nonessential amino acids, and 1% glutamine. The compounds were diluted in the medium at concentrations ranging from 0.78 to 100 μM plus 1% DMSO and added to the cells 48 hours after plating, with each concentration tested in triplicate. Cells were incubated with the compound for 72 hours and cytotoxicity was measured using a mitochondrial metabolic assay with MTS (Promega). The data were transformed to log[inhibitor] and fit to a 4-variable slope curve using GraphPad Prism (v6, www.graphpad.com).
(§2) Three days later, the MTS reagent was added for 90 minutes prior to terminating the incubation period and reading the OD480.

HepDES19 cells = experiment: Cytotoxicity in hepatoma cells (MTS); conditions: 72 hours, MTS
Experimental: as §1, §2

[3] = Cryptococcus neoformans, YNB-02+1% DMSO, 35° C., 48 hours
[4] = CC50, HepDES19 cells, 72 hours, MTS
[5] = Cryptococcus neoformans, Table 3, similar methods to Table 2
[6] = CC50, Table 3, similar methods to Table 2
[7] = YNB-02+1% DMSO, 35° C., 48 hours

Molecule	MIC80 [1, 3]	CC50 at 72 h [2, 4]	also measured
NCc1cccc(-c2ccc(Cc3cc(=O)n(O)c4ncccc34)cc2)c1 [Compound 153]	–	–	MIC (Wild-type KN99α): ~4 µM (≈ 1.43 µg/mL)
Cc1cc(O)c(=O)c(O)cc1-c1ccc(Cl)cc1 [Compound 144]	50 µM (≈ 13.1 µg/mL)	–	–
COC(=O)c1c(CCl)cc(O)c(=O)c(O)c1C(=O)OC [Compound 107]	50 µM (≈ 15.1 µg/mL)	85.5 µM	–
C=C(C)C1CCc2c(c(C)cc(O)c(=O)c2O)C1 (stereo not shown) [Compound 56, Manicol]	50 µM (≈ 12.3 µg/mL)	27 µM	–
CC(=O)NC(CCc1ccc(Cl)c(Cl)c1)c1cccc(O)c(=O)c1 (stereo not shown) [Compound 55]	6 µM (≈ 2.2 µg/mL)	4.3 µM	CC50 at 72 h ([2]; CC50, HepDES19, MTS): 4 µM
Cc1cc(O)c(=O)c(O)cc1C(=O)c1ccccc1 [Compound 111]	36 µM (≈ 9.23 µg/mL)	26.3 µM	–
COc1ccc(C(=O)c2cc(O)c(=O)c(O)cc2C)cc1 [Compound 312, 4-(4-methoxybenzoyl)-2,7-dihydroxy-5-methylcyclohepta-2,4,6-trien-1-one]	18 µM (≈ 5.15 µg/mL)	18 µM	–
O=c1c(O)ccc(-c2ccc(-c3ccccc3)cc2)cc1O [Compound 264, 4-([1,1′-biphenyl]-4-yl)-2,7-dihydroxycyclohepta-2,4,6-trien-1-one]	35 µM (≈ 10.2 µg/mL)	28 µM	–
O=c1cc(Cc2ccc(Br)cc2)c2cccnc2n1O [Compound 149]	–	–	MIC (Wild-type KN99α): ~10 µM (≈ 3.31 µg/mL)
Cc1ccccc1C(=O)Oc1cccccc1=O [Compound 281]	50 µM (≈ 12 µg/mL)	100 µM	–
CC(C)c1ccc(O)c(=O)cc1 [Compound 48, γ-thujaplicin]	8 µM (≈ 1.31 µg/mL)	45 µM	–
O=C(Oc1cccccc1=O)c1ccc([N+](=O)[O-])cc1 [Compound 51, tropolone p-nitrobenzoate]	24 µM (≈ 6.51 µg/mL)	> 100 µM	–
Cc1cc(O)c(=O)c(O)cc1C(=O)O [Compound 319, 4,6-dihydroxy-2-methyl-5-oxocyclohepta-1,3,6-triene-1-carboxylic Acid]	50 µM (≈ 9.81 µg/mL)	> 100 µM	MIC [1, 3]: ≥ 50 µM
Cc1cc(O)c(=O)c(O)cc1C(=O)C(C)C [Compound 143]	50 µM (≈ 11.1 µg/mL)	> 100 µM	MIC [1, 3]: ≥ 50 µM
CC(C)=CCc1ccc(=O)c(O)cc1C(C)C [Compound 49, Nootkatin]	18 µM (≈ 4.18 µg/mL)	18.5 µM	–
Cc1cc(O)c(=O)c(O)cc1-c1ccccc1 [Compound 113]	24 µM (≈ 5.48 µg/mL)	37.5 µM	–
Cc1cc(O)c(=O)c(O)cc1C(=O)c1ccc(-c2ccccc2)cc1 [Compound 118]	18 µM (≈ 5.98 µg/mL)	17.5 µM	–
COc1cc(C)c(C(=O)c2ccccc2)c(C(=O)c2ccccc2)c(O)c1=O [Compound 317, (7-hydroxy-5-methoxy-3-methyl-6-oxocyclohepta-2,4,7-triene-1,2-diyl) bis (phenyl methanone)]	50 µM (≈ 18.7 µg/mL)	> 100 µM	activity against C. neoformans (in words) [1]: little activity; also recorded: no activity
Cc1ccc(CSc2cccccc2=O)cc1 [Compound 365]	–	–	MIC [1, 5]: > 50 µM; CC50 at 72 h [2, 6]: > 100 µM
Cc1cc(O)c(=O)c(O)cc1-c1ccc([N+](=O)[O-])cc1 [Compound 112]	49 µM (≈ 13.4 µg/mL)	74 µM	–
O=C(Oc1cccccc1=O)c1ccccc1Cl [Compound 282]	36 µM (≈ 9.38 µg/mL)	–	CC50 (HepDES19 cells): 96.5 µM
O=c1cccccc1O [Compound 53, Tropolone]	24 µM (≈ 2.93 µg/mL)	100 µM	MIC [1, 3]: 24 µM (≈ 2.93 µg/mL)
O=C(Oc1cccccc1=O)c1ccc(Cl)cc1 [Compound 63]	17 µM (≈ 4.43 µg/mL)	100 µM	–
O=c1cc(-c2ccccc2)c2cccnc2n1O [Compound 154]	–	–	MIC (Wild-type KN99α): ~20 µM (≈ 4.76 µg/mL)
O=c1c(O)ccc(-c2ccccc2)cc1O [Compound 262, 2,7-dihydroxy-4-phenylcyclohepta-2,4,6-trien-1-one]	18 µM (≈ 3.86 µg/mL)	96 µM	–

Molecule	MIC80 [1, 3]	CC50 at 72 h [2, 4]	also measured
Cc1ccc(O)c(=O)c(O)c1 [Compound 210]	15 µM (≈ 2.28 µg/mL)	71 µM	MIC [1, 3]: ≤ 15 µM
Cc1cc(O)c(=O)c(O)cc1-c1ccc(Br)cc1 [Compound 114]	11 µM (≈ 3.38 µg/mL)	18.6 µM	–
Cc1cc(O)c(=O)c(O)cc1C(=O)c1ccc([N+](=O)[O-])cc1 [Compound 313, 2,7-dihydroxy-4-methyl-5-(4-nitrobenzoyl)cyclohepta-2,4,6-trien-1-one]	24 µM (≈ 7.23 µg/mL)	46 µM	–
O=C(Nc1ccc(O)c(=O)cc1)c1ccccc1 [Compound 52]	50 µM (≈ 12.1 µg/mL)	> 100 µM	–
Cc1cc(O)c(=O)c(O)cc1-c1ccc(C(F)(F)F)cc1 [Compound 145]	15 µM (≈ 4.44 µg/mL)	11 µM	–
Cc1cc(O)c(=O)c(O)cc1C(=O)C1CC1 [Compound 310, 4-(cyclopropanecarbonyl)-2,7-dihydroxy-5-methylcyclohepta-2,4,6-trien-1-one]	11 µM (≈ 2.42 µg/mL)	35 µM	–
O=Nc1ccc(O)c(=O)cc1 [Compound 50, 5-nitrosotropolone]	–	–	MIC80 [1, 7]: 24 µM (≈ 3.63 µg/mL); CC50 (HepDES19 cells): 17.5 µM
O=c1c(O)ccccc1O [Compound 172, 7-Hydroxytropolone]	24 µM (≈ 3.31 µg/mL)	100 µM	MIC [1, 3]: 24 µM (≈ 3.31 µg/mL); activity against C. neoformans (in words) [1]: little activity
Purpurogallin [Compound 195]	–	–	MIC80 [1, 7]: 50 µM; activity against C. neoformans (in words) [1]: largely ineffective; CC50 (HepDES19 cells): 92 µM
Cc1cc(O)c(=O)c(O)cc1C(=O)c1cccs1 [Compound 308, 4-(thiopene-2-carbonyl)-2,7-dihydroxy-5-methylcyclohepta-2,4,6-trien-1-one]	11 µM (≈ 2.89 µg/mL)	24 µM	–
Cc1cc(O)c(=O)c(O)cc1-c1cccc2ccccc12 [Compound 146]	20 µM (≈ 5.57 µg/mL)	20 µM	–
O=c1c(O)ccc(-c2ccco2)cc1O [Compound 265, 4-(furan-2-yl)-2,7-dihydroxycyclohepta-2,4,6-trien-1-one]	–	–	MIC [1, 3]: ≤ 15 µM
O=c1cccccc1Cl [Compound 57, 2-chlorotropone]	–	–	MIC80 [1, 7]: 50 µM (≈ 7.03 µg/mL)
Cc1cc(O)c(=O)c(O)cc1C(=O)c1ccc2ccccc2c1 [Compound 315, 4-(2-naphthoyl)-2,7-dihydroxy-5-methylcyclohepta-2,4,6-trien-1-one]	24 µM (≈ 7.35 µg/mL)	17 µM	–
Cc1cc(O)c(=O)c(O)cc1C(=O)c1ccccc1O [Compound 311, 4-(2-hydroxybenzoyl)-2,7-dihydroxy-5-methylcyclohepta-2,4,6-trien-1-one]	15 µM (≈ 4.08 µg/mL)	20 µM	–
COCc1cc(O)c(=O)c(O)c(C(=O)OC)c1C(=O)OC [Compound 108]	50 µM (≈ 14.9 µg/mL)	90.5 µM	–
Cc1cc(O)c(=O)c(O)cc1C(=O)c1ccco1 [Compound 309, 4-(furan-2-carbonyl)-2,7-dihydroxy-5-methylcyclohepta-2,4,6-trien-1-one]	24 µM (≈ 5.91 µg/mL)	35 µM	–
COC(=O)c1c(C)cc(O)c(=O)c(O)c1C(=O)OC [Compound 106]	41 µM (≈ 11 µg/mL)	24.5 µM	–
Cc1cc(O)c(=O)c(O)cc1C(=O)C1CCCCC1 [Compound 120]	12 µM (≈ 3.15 µg/mL)	21.5 µM	–
CC(=O)c1cc(O)c(=O)c(O)cc1C [Compound 110]	50 µM (≈ 9.71 µg/mL)	19 µM	MIC [1, 3]: ≥ 50 µM
Cc1ccc(S(=O)(=O)Oc2cccccc2=O)cc1 [Compound 61]	41 µM (≈ 11.3 µg/mL)	30.5 µM	CC50 at 72 h ([2]; CC50, HepDES19, MTS): 30.5 µM
COC(=O)c1cc(O)c(=O)c(OC)cc1C [Compound 273]	50 µM (≈ 11.2 µg/mL)	100 µM	activity against C. neoformans (in words) [1]: no activity
Cc1ccc(C(=O)Nc2cccccc2=O)cc1 [Compound 60]	50 µM (≈ 12 µg/mL)	> 100 µM	–
O=C(Sc1cccccc1=O)c1ccccc1 [Compound 364]	–	–	MIC [1, 5]: 0.2 µM (≈ 0.0485 µg/mL); CC50 at 72 h [2, 6]: 46 µM
COC(=O)c1c2c(cc(O)c(=O)c1O)COC2=O [Compound 280, Methyl 5,7-dihydroxy-3,6-dioxo-3,6-dihydro-1H-cyclohepta[c]furan-4-carboxylate]	50 µM (≈ 12.6 µg/mL)	66 µM	–
